One assay has as its system Rattus norvegicus. In words: Stereotyped behavior was tested in rats at (ip) administration of 3 mg/kg (N=6).scores were compared as the percent of that obtained with apomorphine. It counts as functional.
The next assay has as its target D(1A) dopamine receptor (Rattus norvegicus, UniProt P18901).
A further assay addresses D(2) dopamine receptor (Rattus norvegicus, UniProt P61169).

Bounds are passed on as bounds.

Chain of D(1A) dopamine receptor (P18901 whole entry): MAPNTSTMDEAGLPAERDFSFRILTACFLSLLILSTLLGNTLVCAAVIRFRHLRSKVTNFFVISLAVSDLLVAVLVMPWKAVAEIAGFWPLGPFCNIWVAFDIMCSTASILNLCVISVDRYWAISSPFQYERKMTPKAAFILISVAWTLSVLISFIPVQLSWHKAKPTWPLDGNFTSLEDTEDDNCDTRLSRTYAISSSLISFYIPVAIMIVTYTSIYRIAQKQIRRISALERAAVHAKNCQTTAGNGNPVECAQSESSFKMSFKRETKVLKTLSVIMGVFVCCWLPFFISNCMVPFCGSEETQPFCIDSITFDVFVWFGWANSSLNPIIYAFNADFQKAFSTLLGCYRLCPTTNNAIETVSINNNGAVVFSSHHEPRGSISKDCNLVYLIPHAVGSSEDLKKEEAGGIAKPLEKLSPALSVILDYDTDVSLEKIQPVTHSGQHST
Chain of D(2) dopamine receptor (P61169 whole entry): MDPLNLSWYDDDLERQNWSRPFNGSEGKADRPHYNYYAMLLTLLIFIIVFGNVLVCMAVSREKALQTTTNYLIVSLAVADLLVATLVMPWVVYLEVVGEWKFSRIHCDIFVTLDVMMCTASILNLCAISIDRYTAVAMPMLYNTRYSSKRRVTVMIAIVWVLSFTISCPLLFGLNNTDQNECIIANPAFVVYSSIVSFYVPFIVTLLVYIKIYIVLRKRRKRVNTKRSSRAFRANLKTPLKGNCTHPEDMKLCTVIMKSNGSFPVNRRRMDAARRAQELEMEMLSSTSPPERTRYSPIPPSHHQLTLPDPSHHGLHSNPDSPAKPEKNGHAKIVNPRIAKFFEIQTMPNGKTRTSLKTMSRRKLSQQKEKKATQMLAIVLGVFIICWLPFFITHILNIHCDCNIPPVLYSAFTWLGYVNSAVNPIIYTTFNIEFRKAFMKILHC
Description for D(1A) dopamine receptor: Dopamine receptor D1 affinity was tested in vitro against corpus striatum from rat brain membranes
Description for D(2) dopamine receptor: Dopamine receptor D2 affinity was tested in vitro against corpus striatum from rat brain membranes

For `CCCN1CCc2cccc3c2[C@H]1Cc1ccc(O)c(O)c1-3.Cl`, the Stereotypy score in the assay with Rattus norvegicus was found to be 99.
As to `CC(C)CN1CCc2cccc3c2[C@H]1Cc1ccc(O)c(O)c1-3.Cl`, the Stereotypy score in the assay with Rattus norvegicus is 3. For the same compound, the Ki on D(1A) dopamine receptor was > 10000 nM; at D(2) dopamine receptor, 490 nM.
`Cl.Oc1ccc2c(c1O)-c1cccc3c1[C@@H](C2)NCC3`: in the assay on Rattus norvegicus, the Stereotypy score stood at 26. Besides, the Ki on D(1A) dopamine receptor was 390 nM.
Regarding `Cl.Oc1ccc2c(c1O)-c1cccc3c1[C@@H](C2)N(CC1CC1)CC3`, the Stereotypy score with Rattus norvegicus is reported as 106. For the same compound, the Ki turned out to be 730 nM on D(1A) dopamine receptor and 0.43 nM on D(2) dopamine receptor.
As to `Br.C=CCN1CCc2cccc3c2[C@H]1Cc1ccc(O)c(O)c1-3`, the Stereotypy score in the assay with Rattus norvegicus turned out to be 86. For the same compound, the affinity at D(1A) dopamine receptor corresponds to a Ki of 615 nM.
The compound `CCN1CCc2cccc3c2[C@H]1Cc1ccc(O)c(O)c1-3.Cl` displayed a Stereotypy score with Rattus norvegicus of 97. This compound also gave a Ki on D(1A) dopamine receptor of 124 nM.
Consider `Cl.OCCN1CCc2cccc3c2[C@H]1Cc1ccc(O)c(O)c1-3`, for which the Stereotypy score in the assay on Rattus norvegicus came out at 0. For the same compound, on D(1A) dopamine receptor, the Ki is > 10000 nM.
Compound `Cl.Oc1ccc2c(c1O)-c1cccc3c1[C@@H](C2)N(CC(F)(F)F)CC3` displayed a Stereotypy score in the assay on Rattus norvegicus of 2. Also, the Ki on D(1A) dopamine receptor was > 50000 nM.
On to `CC(C)N1CCc2cccc3c2[C@H]1Cc1ccc(O)c(O)c1-3.Cl`, for which, in the assay with Rattus norvegicus, the Stereotypy score amounted to 0. Also, the Ki at D(1A) dopamine receptor was > 10000 nM.
Regarding `Oc1ccc2c(c1O)-c1cccc3c1[C@@H](C2)N(CC(F)(F)C(F)(F)F)CC3`, the Ki at D(1A) dopamine receptor is > 50000 nM.
`CN1CCc2cccc3c2[C@H]1Cc1ccc(O)c(O)c1-3.CN1CCc2cccc3c2[C@H]1Cc1ccc(O)c(O)c1-3.Cl.Cl.O` [APOMORPHINE HYDROCHLORIDE] gave a Stereotypy score in the assay with Rattus norvegicus of 100.

Values taken from ChEMBL document CHEMBL1125067, “Synthesis and structural requirements of N-substituted norapomorphines for affinity and activity at dopamine D-1, D-2, and agonist receptor sites in rat brain” (J Med Chem, 1990).
